The source of these data is PubChem BioAssay (NCI).

“And” between values parts separate entries of the source, which are not always exact repeats. Equal entries are not always repeated.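 These data come from cells grown in 96-well plates and exposed to compound for 48 hours at five concentrations. Abbreviation: GI50, concentration required for 50% inhibition of growth. TGI marks complete inhibition of growth.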

Among the test systems are A549 NSCLC; HCT-116 colon; HOP-92 NSCLC; M14 melanoma; OVCAR-4 ovarian; OVCAR-8 ovarian; RXF 393 renal; SK-MEL-2 melanoma; U251 CNS.
Assay in all cases: NCI-60 cell line screen, 48 h

As for `Cc1c(Cl)c(=O)oc2cc(OC/C=C3\CCC(=O)O3)ccc12`, the GI50 was 58.2 µM in the assay with A549 NSCLC; 13900 nM in the assay on HCT-116 colon; 13 µM in the assay with HOP-92 NSCLC; 13.3 µM in the assay with M14 melanoma; 15.2 µM in the assay with OVCAR-4 ovarian; 20 µM in the assay with OVCAR-8 ovarian. Moreover, the GI50 in the assay on RXF 393 renal is 23500 nM; in the assay on SK-MEL-2 melanoma, 15.7 µM; with U251 CNS it was 16.8 µM. Moreover, the TGI in the assay on A549 NSCLC is more than 100 µM; in the assay with HCT-116 colon, 28.3 µM; with HOP-92 NSCLC, 30 µM; in the assay on M14 melanoma it was 31.7 µM; with OVCAR-4 ovarian it was 36.1 µM; in the assay with OVCAR-8 ovarian it was 47.2 µM. The TGI in the assay on RXF 393 renal was more than 100 µM; in the assay on SK-MEL-2 melanoma, 40.5 µM; in the assay on U251 CNS, 33.3 µM.
For the compound `Cc1ccc(S(=O)(=O)NC(=O)NCCc2ccccc2)cc1`, the TGI in the assay on A549 NSCLC, in the assay with HCT-116 colon, with HOP-92 NSCLC, in the assay on M14 melanoma, with OVCAR-4 ovarian and in the assay on OVCAR-8 ovarian was more than 100 µM each time. Besides, the TGI in the assay with RXF 393 renal, with SK-MEL-2 melanoma and with U251 CNS was more than 100 µM each time.
For the compound `Nc1ccc(-c2cc(C(=O)Nc3nccs3)[nH]c(=S)n2)cc1`, the TGI with A549 NSCLC, in the assay on HCT-116 colon, in the assay on HOP-92 NSCLC, in the assay on M14 melanoma, in the assay with OVCAR-4 ovarian and with OVCAR-8 ovarian was more than 100 µM in each case. The TGI in the assay on RXF 393 renal, in the assay on SK-MEL-2 melanoma and with U251 CNS was more than 100 µM each time.
As for `Cc1cccc(C)c1NC(=O)CCC/C(CC(=O)c1ccc(F)cc1)=N\NC(=O)C(=O)NN`, the TGI with A549 NSCLC, in the assay with HCT-116 colon, in the assay with M14 melanoma, in the assay with OVCAR-4 ovarian, with OVCAR-8 ovarian and in the assay on RXF 393 renal was more than 100 µM throughout. For the same compound, the TGI in the assay with SK-MEL-2 melanoma and in the assay with U251 CNS was more than 100 µM each time.
For `CC1(C)CCCC2(C)C3C(O)CC2(C)C(O)C31` (configuration not stated), the TGI with A549 NSCLC, in the assay on HCT-116 colon, in the assay on M14 melanoma, in the assay on OVCAR-4 ovarian, with OVCAR-8 ovarian and in the assay on RXF 393 renal was more than 100 µM throughout. For the same compound, the TGI in the assay on SK-MEL-2 melanoma and in the assay on U251 CNS was more than 100 µM in each case.
In the case of `Cn1c(=O)nc2n(-c3ccc(Cl)cc3)c(-c3ccccc3)c(-c3ccccc3)nc-2c1=O`, the TGI with A549 NSCLC was more than 100 µM; in the assay with HOP-92 NSCLC, 84.5 µM; with M14 melanoma, 45.5 µM; in the assay on OVCAR-4 ovarian, more than 100 µM; with OVCAR-8 ovarian, more than 100 µM; in the assay with SK-MEL-2 melanoma, 60 µM. The same compound returned a TGI with U251 CNS of more than 100 µM.
As to `C[C@H]1C/C=C/[C@H]2[C@@H]3O[C@]3(C)[C@@H](C)[C@H]3[C@H](Cc4ccccc4)NC(=O)[C@]32OC(=O)O/C=C/[C@@](C)(O)C1=O`, the GI50 is 0.0462 µM with A549 NSCLC; 57.8 nM and 20.7 nM and 30.1 nM in the assay on HCT-116 colon; 0.396 µM in the assay with OVCAR-4 ovarian; 15 µM in the assay on OVCAR-8 ovarian; 12.5 nM in the assay on RXF 393 renal; 34.2 µM with SK-MEL-2 melanoma. In addition, in the assay with U251 CNS, the GI50 was 0.025 µM. The TGI with HCT-116 colon is 6.75 µM and 16.3 µM and 33.6 µM; with HOP-92 NSCLC, 0.0591 µM and 0.0877 µM; with M14 melanoma it was 25.4 µM; in the assay on OVCAR-4 ovarian, > 79.2 µM and 46.3 µM and > 250 µM; in the assay on OVCAR-8 ovarian it was 89.7 µM and 125 µM and > 250 µM; in the assay with SK-MEL-2 melanoma it was 38.6 µM and 125 µM. Also, the TGI with U251 CNS is 1.14 µM and 4.02 µM and 0.424 µM.
Regarding `Cc1ccc(S(=O)(=O)N/N=C(\c2nc3ccc([N+](=O)[O-])cc3[nH]c2=O)C(O)c2ccc([N+](=O)[O-])cc2)cc1` (configuration not stated), the TGI in the assay with A549 NSCLC, in the assay with HOP-92 NSCLC, with M14 melanoma, in the assay on OVCAR-4 ovarian, in the assay on OVCAR-8 ovarian and with RXF 393 renal was more than 100 µM each time. Besides, the TGI in the assay on SK-MEL-2 melanoma and in the assay with U251 CNS was more than 100 µM in each case.
As to `CCOC(=O)C1C=C2O[C@@H]3OC4(CCCCC4)O[C@@H]3C2C2C(=O)CCC(=O)[C@@]12C(=O)OC` (some centres not stated), the TGI in the assay with A549 NSCLC, with HCT-116 colon, in the assay with HOP-92 NSCLC, in the assay with M14 melanoma, in the assay on OVCAR-4 ovarian and in the assay with OVCAR-8 ovarian was more than 100 µM throughout. Moreover, the TGI with SK-MEL-2 melanoma and with U251 CNS was more than 100 µM throughout.
For the compound `S=c1o[nH]c(-c2ccccc2)c1C=Nc1ccccc1`, the TGI in the assay on A549 NSCLC, with M14 melanoma, in the assay on OVCAR-4 ovarian, in the assay with OVCAR-8 ovarian, in the assay on RXF 393 renal and with SK-MEL-2 melanoma was more than 100 µM in each case. The TGI in the assay with U251 CNS is more than 100 µM.
As for `C/C(=N\NC(=O)C[N+](C)(C)C)c1sc(-c2cccnc2)nc1C`, the TGI in the assay with A549 NSCLC, in the assay with HCT-116 colon, with HOP-92 NSCLC, in the assay on M14 melanoma, with OVCAR-8 ovarian and with RXF 393 renal was more than 100 µM in each case. The TGI in the assay with SK-MEL-2 melanoma and with U251 CNS was more than 100 µM in each case.
As for `CCOC(=O)C(=O)Nc1cc(Cl)c(Cl)cc1Cl`, the TGI with HCT-116 colon, with HOP-92 NSCLC, in the assay on M14 melanoma, in the assay on OVCAR-4 ovarian, in the assay with OVCAR-8 ovarian and in the assay with RXF 393 renal was more than 100 µM in each case. Also, the TGI in the assay on SK-MEL-2 melanoma and with U251 CNS was more than 100 µM in each case.
On to `C[N+](C)(C)CC1CCC(C[N+](C)(C)C)C1=O` (configuration not stated), for which the TGI came to 45.8 µM in the assay on A549 NSCLC; 3.44 µM with HCT-116 colon; 2.28 µM with HOP-92 NSCLC; 3.35 µM with M14 melanoma; 10.8 µM in the assay with OVCAR-4 ovarian; 38 µM with OVCAR-8 ovarian. Moreover, the TGI came to 3.71 µM with RXF 393 renal, 36.9 µM in the assay on SK-MEL-2 melanoma and 17.1 µM with U251 CNS. Also, in the assay with OVCAR-8 ovarian, the GI50 was 14.3 µM.
As for `O=[P+](O)c1ccccn1`, the TGI with A549 NSCLC, in the assay on HCT-116 colon, with HOP-92 NSCLC, in the assay with M14 melanoma, in the assay with OVCAR-4 ovarian and in the assay on OVCAR-8 ovarian was more than 100 µM throughout. Also, the TGI with RXF 393 renal and in the assay on U251 CNS was more than 100 µM throughout.
For the compound `O=C(Cc1nc2sc3c(c2c(=O)[nH]1)CCCC3)Nc1ccccc1`, the TGI in the assay with A549 NSCLC, in the assay with HCT-116 colon, with HOP-92 NSCLC, in the assay with M14 melanoma, in the assay on OVCAR-4 ovarian and in the assay on OVCAR-8 ovarian was more than 100 µM each time. For the same compound, the TGI with RXF 393 renal is 69.9 µM; in the assay with SK-MEL-2 melanoma, more than 100 µM; in the assay on U251 CNS it was more than 100 µM.
As for `CCCOc1cc2ccccc2cc1C(=O)Nc1nc(NC)c2c(ccc3nccc32)[nH]1`, the GI50 in the assay on A549 NSCLC is 0.978 µM; in the assay with HCT-116 colon it was 350 nM; in the assay on HOP-92 NSCLC, 1.15 µM; with M14 melanoma it was 0.444 µM; in the assay on OVCAR-8 ovarian it was 0.89 µM; in the assay on RXF 393 renal it was 404 nM. Also, the GI50 with SK-MEL-2 melanoma is 0.325 µM; with U251 CNS it was 0.521 µM. The TGI in the assay on A549 NSCLC is 2.39 µM; in the assay with HCT-116 colon it was 1.24 µM; with HOP-92 NSCLC, 2.51 µM; with M14 melanoma, 1.98 µM; in the assay with OVCAR-8 ovarian, 2.3 µM; in the assay with RXF 393 renal it was 1.68 µM. Also, the TGI in the assay on SK-MEL-2 melanoma was 1.36 µM; with U251 CNS, 1.74 µM.
With `CC(C)(C)OP(=O)(OC(C)(C)C)C(O)c1ccc(/C=C(\C#N)C(N)=O)cc1` (configuration not stated), the TGI in the assay on A549 NSCLC, in the assay with HCT-116 colon, in the assay with HOP-92 NSCLC, in the assay with M14 melanoma, in the assay with OVCAR-4 ovarian and in the assay with OVCAR-8 ovarian was more than 100 µM each time. In addition, the TGI in the assay with RXF 393 renal, with SK-MEL-2 melanoma and with U251 CNS was more than 100 µM in each case.
With `O=C1CC(c2c(-c3ccccc3)[nH]c3ccccc23)C(=O)N1c1ccccc1` (configuration not stated), the TGI with A549 NSCLC, in the assay with HCT-116 colon, in the assay with M14 melanoma, with OVCAR-4 ovarian, with OVCAR-8 ovarian and with RXF 393 renal was more than 100 µM each time. Moreover, the TGI in the assay with SK-MEL-2 melanoma and in the assay on U251 CNS was more than 100 µM throughout.
In the case of `Cc1cc(N(CCC#N)CCC#N)ccc1N=Nc1cc(Cl)ccc1Cl`, the TGI in the assay on A549 NSCLC is 38.5 µM; in the assay on M14 melanoma, 11.4 µM; in the assay on OVCAR-4 ovarian, 10.3 µM; in the assay on RXF 393 renal, 23 µM; with SK-MEL-2 melanoma it was 33.8 µM; with U251 CNS, 33.5 µM.
As to `N#CC1=C(N)NC(=S)NC1c1ccc(-c2ccc(-c3nc4ccccc4o3)cc2)s1` (configuration not stated), the GI50 is 9 µM in the assay on A549 NSCLC; 7710 nM with HCT-116 colon; 9.84 µM with HOP-92 NSCLC; 12.6 µM with M14 melanoma; 10.1 µM in the assay with OVCAR-8 ovarian; 9.2 µM in the assay on SK-MEL-2 melanoma. Also, the GI50 in the assay with U251 CNS was 7.73 µM. Besides, the TGI with A549 NSCLC was 20.2 µM; in the assay with HCT-116 colon, 14.4 µM; with HOP-92 NSCLC, more than 50 µM; in the assay with M14 melanoma it was 30.3 µM; with OVCAR-8 ovarian, 22.4 µM; in the assay with SK-MEL-2 melanoma, 28.8 µM. This compound also registered a TGI with U251 CNS of 14.4 µM.
